Like-named read-outs stand apart in the source and are kept apart here.
Experiments:
[1] = system: BJ normal fibroblast cell line; test: MTT cytotoxicity, BJ normal fibroblasts; assay type: cell-based, human; details: for toxic to normal fibroblasts (MTT test): BJ, concentration range used; for IC50: MTT test
Method: Biological studies were performed on human malignant melanoma G-361 (ATCC CRL-1424) cell lines and human fibroblast BJ (ATCC® CRL-2522™) cell lines purchased from the American Type Culture Collection (ATCC, Manassas, VA USA). The G-361 cell lines were maintained in McCoy’s medium (Corning, NY, USA), and the fibroblast BJ cell line was cultured in EMEM (Corning, NY, USA). All media were supplemented with 10% heat-inactivated fetal bovine serum (PAN-Biotech, Aidenbach, Germany), 100 U/mL penicillin, 100 μg/mL streptomycin and 0.25 μg/mL amphotericin B (Sigma-Aldrich, St. Louis, MO, USA). Cultures were maintained at 37 °C in a humidified atmosphere of 95% air and 5% CO2. The experiments were performed using cells from passage 5 to 10.
The cytotoxicity of the new compounds was evaluated against both the G-361 and BJ cell lines. Cells were seeded into 96-well plates at a density of 3 × 10^4 cells/well and 2 × 10^4 cells/well. After 24 h of incubation, when 70–80% confluence was reached, the culture medium was removed and replaced with the fresh one containing the tested compounds in the concentration range of 10, 25, 50, 75, 100, 125 and 250 μM. Cells were cultured at 37 °C in the presence of 5% air with CO2 for another 24 h. The cytotoxicity of the test compounds was evaluated by the MTT colorimetric assay, based on the ability of live cells to convert yellow soluble tetrazolium salts (3-[4,5-dimethylthiazol-2-yl]- 2,5-diphenyltetrazolium bromide, MTT) to purple insoluble formazan by cellular dehydrogenase. After 24 h of incubation with solutions of the test compounds, 4 mg/mL MTT solution (Thermo Scientific, Waltham, MA, USA) was added to the cell cultures and incubation was continued for 4 h at 37 °C. The MTT medium was then removed, and the resulting crystals were dissolved in 200 µL of DMSO. The solution was measured for absorbance at 570 nm using a Power Wave xs spectrophotometric plate reader, BioTek Instruments (Winooski, VT, USA). The experiment was performed three times with three replicates for each concentration. IC50 values were determined using the AAT Bioquest IC50 calculator.

melanoma line G-361 [2] = test: Annexin V / propidium iodide apoptosis assay (image cytometry); assay type: cell-based, human; details: G-361, 24 h, compound at IC50 concentration, representative histogram
Method: Cell apoptosis assays were performed using an NC 3000 system (Chemometec., Lillerød, Denmark) according to the manufacturer’s protocol for the Annexin V Assay. The G-361 cells were seeded in 6-well plates at a density of 2 × 10^5 cells/mL and the tested compounds with concentration IC50 were added when 70–80% of confluence was achieved. After 24 h incubation, cells were suspended in 100 μL of Annexin V binding buffer with 2 µL of Annexin V-CF488A conjugate (FITC-labeled annexin V) and 2 µL of Solution 15 (Hoechst33342 stains). In the next step, the cells were incubated for 15 min at 37 °C and subsequently centrifuged at 400× g for 5 min. Following the removal of the supernatant, the cell pellets were resuspended in 300 µL of Annexin V binding buffer and centrifuged twice under the conditions described above. Eventually, the cell pellets were resuspended in 100 µL of Annexin V binding buffer and 2 µL of Solution 16 (propidium iodide, which stains late apoptotic and necrotic cells) was added. The prepared samples were analyzed immediately using 2-chamber NC-Slides A2™ (Chemometec., Lillerød, Denmark) and the Annexin V Assay protocol. The obtained scatterplots were used to demarcate the percentage of healthy cells and early and late apoptotic cells. The experiment was performed three times with three replicates.

melanoma line G-361 [3] = test: Intracellular thiol / reduced glutathione (GSH) content, VB-48 vitality assay; assay type: cell-based, human; details: G-361, 24 h, compound at IC50 concentration, representative histogram; quadrant not defined in legend
Method: Analyses of the levels of cellular thiols were performed using NC 3000 system (Chemometec., Lillerød, Denmark) according to the manufacturer’s protocol for the cell vitality assay. The G-361 cells were seeded in 12-well culture plates at a density of 1 × 10^5 cell/mL and the tested compounds in concentrations corresponding to IC50 value were added when 70–80% of confluence was achieved. The cells were counted, and suspended in 1 mL of culture medium. A representative sample of 190 uL was pipetted into the new Eppendorf tubes and 10 µL of Solution 5 (which contains acridine orange (AO) that stains all nucleated cells; PI which stains dead cells only; and VitaBright-48 TM ([…]) which stains viable cells in an intensity-dependent manner reliant on the level of thiols) was added to the cell suspension. Next, the stained cells were loaded into 8-chamber NC-Slides A8™ (Chemometec., Lillerød, Denmark) and measured using the Vitality (VB-48) Assay protocol in the NC-3000 image cytometer. The experiment was performed three times with three replicates.

RP-HPLC lipophilicity = assay type: physicochemical; details: for logkW (chromatographic lipophilicity parameter): Kinetex C18, methanol-water 55-80%, extrapolated to 0% methanol; for -S HPLC (slope of linear equation): Table S3
Method: RP-HPLC analysis was performed using a Merck-Hitachi LaChrom Elite System (Merck, Darmstadt, Germany) with diode array detector L-2455, thermostat L-2300, pump L-2130 and autosampler L-2200 with a Kinetex C18 (5µm; 150 × 4,6mm) chromatographic column (Phenomenex, Torrance, USA) as the stationary phase. The mobile phase consisted of methanol (Merck, Darmstadt, Germany) and water (double-distilled), which was degassed by use of the built-in membrane degasser. Subsequently, 5 μL methanolic solution (0.1%; m/v) of the selected samples was applied to the chromatographic column by use of a Hitachi L-2200 autosampler (LaChrom Elite, Hitachi-Merck, Darmstadt, Germany). The analysis was performed with a flow rate of 0.7 mL min^−1 in isocratic mode using various concentrations of organic modifier (methanol) in binary polar mobile phases; percentages of methanol in water were 55–80% (%, v/v) and changed by 5% per step. Chromatograms were detected at 254 nm and the temperature of the column was 25 °C. All experiments were repeated in triplicate and the final results were taken to be the arithmetic means. Dead time was measured using uracil (Calbiochem. Merck, Darmstadt, Germany).

[4] = 24 h treatment, BJ normal fibroblasts, concentration range 10-250 µM, read-out: IC50 BJ
[5] = BJ fibroblasts, further analysis, value in parentheses after >250, read-out: IC50 BJ (value in parentheses)

SMILES | toxic to normal fibroblasts (MTT test) [1] | IC50 ([1]; Homo sapiens, Fibroblast, 24 h treatment, BJ normal fibroblasts, concentration range 10-250 µM, read-out: IC50 BJ) [µM] | IC50 ([1]; Homo sapiens, Fibroblast, BJ fibroblasts, further analysis, value in parentheses after >250, read-out: IC50 BJ (value in parentheses)) [µM] | Q1ll, normal cells (melanoma line G-361 [2]) [%] | Q1lr, early apoptotic cells (melanoma line G-361 [2]) [%] | Q1ul, necrotic cells (melanoma line G-361 [2]) [%] | Q1ur, late apoptotic cells (melanoma line G-361 [2]) [%] | GSH content analysis, quadrant Q1ll (melanoma line G-361 [3]) [%] | GSH content analysis, quadrant Q1lr (melanoma line G-361 [3]) [%] | GSH content analysis, quadrant Q1ul (melanoma line G-361 [3]) [%] | GSH content analysis, quadrant Q1ur (melanoma line G-361 [3]) [%] | logkW (chromatographic lipophilicity parameter) (RP-HPLC lipophilicity) | -S HPLC (slope of linear equation) (RP-HPLC lipophilicity) | IC50 [1, 4] [µM] | IC50 [1, 5] [µM]
CSc1ccc(NC(=S)NNC(=O)COc2ccc(Cl)cc2Cl)cc1 [PK2, 1-(2,4-dichlorophenoxy)acetyl-4-(4-metylothiophenyl)thiosemicarbazide] | not toxic | > 250 | 828 | 52 | 7 | 2 | 39 | 3 | 44 | 30 | 23 | 4.7804 | 6.3581 | – | –
O=C(COc1ccc(Cl)cc1Cl)NNC(=S)Nc1ccccc1I [PK6, 1-(2,4-dichlorophenoxy)acetyl-4-(2-iodophenyl)thiosemicarbazide] | not toxic | – | – | 30 | 17 | 4 | 49 | 4 | 46 | 28 | 22 | 4.1439 | 5.4574 | > 250 | 631
O=C(COc1ccc(Cl)cc1Cl)NNC(=S)Nc1cccc2ccccc12 [PK9, 1-(2,4-dichlorophenoxy)acetyl-4-(1-naphtyl)thiosemicarbazide] | not toxic | – | – | 32 | 28 | 1 | 39 | 3 | 41 | 26 | 30 | 4.6425 | 6.1619 | > 250 | 894

Reference: article PMC8961551, “Potential Anticancer Agents against Melanoma Cells Based on an As-Synthesized Thiosemicarbazide Derivative” (Biomolecules, 2022)
